The values that follow come from US20080299210A1, “STABLE NANOSIZED AMORPHOUS DRUG” (priority 2006, published 2008).

A short description of data set [1]: Differential scanning calorimetry (DSC) of drug samples. The data set is classed as physicochemical. The note with it: for Tg of drug / ΔHc: DSC scanning rate 10° C./min. As to the method: The amorphous state of the amorphous drug core is determined by subjecting a population of nanoparticles that comprise one or more nanoparticles that comprise the recited amorphous drug core to differential scanning calorimetry (DSC). In an embodiment, a DSC method according to the invention used a Perkin-Elmer DSC-7 or a Diamond DSC calorimeter applied for the measurement of specific transition temperatures of tested samples. […] The instrument was calibrated using indium, tin and zinc certified reference materials (CRMs) The amorphous state of the amorphous drug core, as measured by DSC is expressed as a weight fraction of the weight of amorphous material in the amorphous drug core to the total weight of the amorphous drug core, expressed as an average value across the population of nanoparticles being measured. For instance, if a population of nanoparticles was measured using DSC, and the amorphous state was determined to be a particular value for the population, that value would be considered the average amorphous state for each nanoparticle within the population. An inventive amorphous drug core may contain a small amount of crystalline drug. […] “Glass forming ability” or “GFA” means the ratio of Tg to Tm. It can be calculated as: […] is a measure of the tendency of an amorphous drug to remain in an amorphous state. […] “Glass transition temperature” or “Tg” means that temperature at which a material transitions to a glassy state from a liquid state, as measured at standard atmospheric pressure. […] C. […] C.
(In general: Differential scanning calorimetry records heat flow against a reference as temperature is scanned.)

The next data set can be described thus: Water solubility of drug. In kind it is physicochemical. The settings on record: 25 °C. On the procedure: “Water solubility” means a measure of the maximum possible concentration of a drug dissolved in water. The water temperature may be specified; in an embodiment water solubility is determined at 25 Deg. C. Units of measurement of water solubility are typically mass/volume, such as mg/ml. The water solubility of drug useful in the practice of the present invention is less than or equal to about 1 mg/ml at 25 Deg. C.; preferably less than or equal to about 0.1 mg/ml at 25 Deg. C.; more preferably less than or equal to about 0.01 mg/ml at 25 Deg. C., still more preferably less than or equal to about 1 microgram/ml at 25 Deg. C.

Some results are limits rather than exact numbers.

Regarding `O=C(NN1CCCCC1)c1nn(-c2ccc(Cl)cc2Cl)c2c1CCC/C2=C\c1ccc(F)cc1` [Amorphous COMPOUND 1], in data set [1], the Tg of drug was determined as 87.07 °C and the ΔHc came out at 0 J/g. For the molecule `CC(C)(C)c1ccc(C(O)CCCN2CCC(C(O)(c3ccccc3)c3ccccc3)CC2)cc1` (stereo not shown) [Amorphous terfenadine, terfenadine], in data set [1], the Tg of drug is 53.77 °C and the ΔHc amounted to 10.35 J/g. In addition, the “crystallinity (crystalline portion) by DSC” value in data set [1] (relative to original crystallinity) is on record as “less than 20%”. The term solubility denotes the concentration that dissolves in the medium under given conditions. A high value points to a readily soluble substance. As to `O=C(NN1CCCCC1)c1nn(-c2ccc(Cl)cc2Cl)c2c1CCC/C2=C\c1ccc(F)cc1` [COMPOUND 1], in the data set “Water solubility of drug”, the solubility is no more than 0.2 ng/mL. For the same molecule, the “glass forming ability (GFA), Tg/Tm” value in data set [1] turned out to be 0.81. In data set [1], `O=C(NN1CCCCC1)c1nn(-c2ccc(Cl)cc2Cl)c2c1CCC/C2=C\c1ccc(F)cc1` [Crystalline COMPOUND 1] yielded a ΔHc of 77.64 J/g. As for `CC(C)(C)c1ccc(C(O)CCCN2CCC(C(O)(c3ccccc3)c3ccccc3)CC2)cc1` (stereo not shown) [Crystalline terfenadine, terfenadine], the ΔHc in data set [1] turned out to be 108.63 J/g. `CC(C)(C)c1ccc(C(O)CCCN2CCC(C(O)(c3ccccc3)c3ccccc3)CC2)cc1` (stereo not shown) [terfenadine, Terfenadine]: in data set [1], the “glass forming ability (GFA), Tg/Tm” value came to 0.77.
